Source: patent publication US11059860B2, “Biocidal peptide and preparation based thereon” (“VERTA RESEARCH-PRODUCTION COMPANY” LTD, priority 2017, dated 2021)
Where a SMILES comes first, the peptide text is derived from it. [ ]: non-standard residue; d: D form. Phe(2-Me) = Cc1ccccc1C[C@H](N)C(=O)O

Experiments:
[1] = tested on: type 2 herpes simplex virus, strain G (ATCC VR-734, USA); assay: Protective activity in lethal herpes infection caused in mice by vaginal infection; type: in vivo
red blood cells = type: cell-based
Experimental: The mixture was then diluted with a phosphate (PBS) buffer (0.015 M Na2HPO4, 0.15 M NaCl, pH 7.4). Samples of peptides in specific concentrations in PBS were placed in wells of a 96-well plate, and a red cell suspension in PBS was added to the samples. The red cell concentration was 1%. PBS was used as the negative control (no hemolysis). The positive control (100% hemolysis) −0.1% triton X-100 in PBS. The plates were incubated for three hours at 37° C. under 5% CO2 and centrifuged. The supernatant was transferred to a clean plate. The intensity of the hemoglobin release from the destroyed red blood cells was determined on a tablet spectrophotometer “Victor-2” (Finland) at λ-450 nm. […] All measurements were made thrice.

[2] = tested on: spleen cells stimulated with LPS; type: cell-based, murine
spleen cells = assay: Spontaneous proliferation of spleen cells (3H-thymidin capture); type: cell-based, murine; conditions: for spontaneous proliferation of spleen cells (captured 3H-thymidin): 72 hrs
[3] = tested on: RAW 264.7 macrophage line cells; assay: NO production by RAW 264.7 macrophage line cells stimulated with LPS (Greiss test); type: cell-based
Experimental: Upon completion of incubation, the culture medium in all wells of the plate was replaced with 0.25 ml of fresh medium. […] Polymixin B (Calbiochem) (PMB) in the same concentrations was used as the positive control of the inhibition of the LPS effect. The prepared mixture was then added at 0.25 ml increments to the wells of the culture plate at least in two parallel experiments. A mixture of LPS and the culture medium was added to the control wells. The cells were cultivated for 24 hrs. in a CO2 incubator. NO production was measured based on the total nitrite level in the culture medium in the Greiss test by using a commercial reagent (Sigma) according to the manufacturer's specifications.

thymus cells = assay: Spontaneous proliferation of thymus cells (3H-thymidin capture); type: cell-based, murine; conditions: 72 hrs
[4] = mice, n = 15, applied once a day on days 1-5 post infection, followed 18 days
[5] = stimulated with 0.04 ml of LPS, peptide 0.4 μg/ml
[6] = stimulated with 0.04 ml of LPS, peptide 2 μg/ml
[7] = stimulated with 0.04 ml of LPS, peptide 10 μg/ml
[8] = stimulated with 0.2 ml of LPS, peptide 0.4 μg/ml
[9] = stimulated with 0.2 ml of LPS, peptide 2 μg/ml
[10] = stimulated with 0.2 ml of LPS, peptide 10 μg/ml

## Nc1nc2c(ncn2COCCO)c(=O)[nH]1 [Acyclovir]
[1]; [4]
  Number of Dead animals: 4
  Number of Survived animals: 11
[1]; mice, n = 15, followed 18 days
  Mortality: 26.7%
[1]; versus virus control group
  Increase in ALS: 2.5

## CC[C@H](C)[C@H](N)C(=O)N[C@@H](CC(C)C)C(=O)N1CCC[C@H]1C(=O)N[C@H](Cc1ccccc1)C(=O)N[C@@H](CCCCN)C(=O)N[C@H](Cc1ccccc1)C(=O)N1CCC[C@H]1C(=O)N[C@H](Cc1ccccc1)C(=O)N[C@H](Cc1ccccc1)C(=O)N1CCC[C@H]1C(=O)N[C@H](Cc1ccccc1)C(=O)N[C@@H](CCCNC(=N)N)C(=O)N[C@@H](CCCNC(=N)N)C(N)=O [Peptide 6, H-Ile-Leu-Pro-D-Phe-Lys-D-Phe-Pro-D-Phe-D-Phe-Pro-D-Phe-Arg-Arg-NH2] (H-ILP[dF]K[dF]P[dF][dF]P[dF]RR-NH2)
Red blood cells
  dose at which hemolysis was not induced: exceeding 200 μg/ml
[2]
  effect on splenocyte proliferation stimulated with lipopolysaccharide (in words): inhibited the LPS effect
Spleen cells; 2-10 μg/ml dose range
  effect on spontaneous proliferation of splenocytes (in words): statistically significant enhancement of the spontaneous proliferation of splenocytes
Spleen cells; peptide 0.08 μg/ml
  spontaneous proliferation of spleen cells (captured 3H-thymidin): 1530 ± 510 imp/min
Spleen cells; peptide 0.4 μg/ml
  spontaneous proliferation of spleen cells (captured 3H-thymidin): 1615 ± 248 imp/min
Spleen cells; peptide 2 μg/ml
  spontaneous proliferation of spleen cells (captured 3H-thymidin): 1854 ± 236 imp/min
Spleen cells; peptide 10 μg/ml
  spontaneous proliferation of spleen cells (captured 3H-thymidin): 3279 ± 177 imp/min
[3]; 10-0.4 μg/ml doses
  effect on NO production stimulated by LPS (in words): inhibited the NO production
[3]; [5]
  NO production inhibition: 0%
[3]; [6]
  NO production inhibition: 1%
[3]; [7]
  NO production inhibition: 8%
[3]; [8]
  NO production inhibition: 1%
[3]; [9]
  NO production inhibition: 10%
[3]; [10]
  NO production inhibition: 7%
Thymus cells; peptide 0.08 μg/ml
  spontaneous proliferation of thymus cells (captured 3H-thymidin): 306 ± 103 imp/min
Thymus cells; peptide 0.4 μg/ml
  spontaneous proliferation of thymus cells (captured 3H-thymidin): 246 ± 48 imp/min
Thymus cells; peptide 2 μg/ml
  spontaneous proliferation of thymus cells (captured 3H-thymidin): 298 ± 63 imp/min
Thymus cells; peptide 10 μg/ml
  spontaneous proliferation of thymus cells (captured 3H-thymidin): 736 ± 161 imp/min

## CC[C@H](C)[C@H](N)C(=O)N[C@@H](CC(C)C)C(=O)N1CCC[C@H]1C(=O)N[C@@H](Cc1ccccc1C)C(=O)N[C@@H](CCCCN)C(=O)N[C@@H](Cc1ccccc1C)C(=O)N1CCC[C@H]1C(=O)N[C@@H](Cc1ccccc1C)C(=O)N[C@@H](Cc1ccccc1C)C(=O)N1CCC[C@H]1C(=O)N[C@@H](Cc1ccccc1C)C(=O)N[C@@H](CCCNC(=N)N)C(=O)N[C@@H](CCCNC(=N)N)C(N)=O [Peptide 11, H-Ile-Leu-Pro-(2-Me)Phe-Lys-(2-Me)Phe-Pro-(2-Me)Phe-(2-Me)Phe-Pro-(2-Me) Phe-Arg-Arg-NH2] (H-ILP[Phe(2-Me)]K[Phe(2-Me)]P[Phe(2-Me)][Phe(2-Me)]P[Phe(2-Me)]RR-NH2)
Red blood cells
  dose at which hemolysis was not induced: exceeding 200 μg/ml

## Polymixin B [PMB]
Spleen cells; peptide 0.08 μg/ml
  spontaneous proliferation of spleen cells (captured 3H-thymidin): 1488 ± 497 imp/min
Spleen cells; peptide 0.4 μg/ml
  spontaneous proliferation of spleen cells (captured 3H-thymidin): 1548 ± 140 imp/min
Spleen cells; peptide 2 μg/ml
  spontaneous proliferation of spleen cells (captured 3H-thymidin): 2051 ± 167 imp/min
Spleen cells; peptide 10 μg/ml
  spontaneous proliferation of spleen cells (captured 3H-thymidin): 2051 ± 456 imp/min
[3]; [5]
  NO production inhibition: 44%
[3]; [6]
  NO production inhibition: 85%
[3]; [7]
  NO production inhibition: 94%
[3]; [8]
  NO production inhibition: 11%
[3]; [9]
  NO production inhibition: 62%
[3]; [10]
  NO production inhibition: 98%
Thymus cells; peptide 0.08 μg/ml
  spontaneous proliferation of thymus cells (captured 3H-thymidin): 255 ± 68 imp/min
Thymus cells; peptide 0.4 μg/ml
  spontaneous proliferation of thymus cells (captured 3H-thymidin): 197 ± 10 imp/min
Thymus cells; peptide 2 μg/ml
  spontaneous proliferation of thymus cells (captured 3H-thymidin): 197 ± 12 imp/min
Thymus cells; peptide 10 μg/ml
  spontaneous proliferation of thymus cells (captured 3H-thymidin): 201 ± 66 imp/min
